Measured values: PMC8808171, “Nonselective TRPC channel inhibition and suppression of aminoglycoside-induced premature termination codon readthrough by the small molecule AC1903” (The Journal of Biological Chemistry, 2022)

Target: T1, TRPC4:C4 (Homo sapiens, UniProt Q9UBN4)
T1 construct: expressed in transfected cells; host or cells: HEK T-REx (tetracycline-induced)
T1 sequence (Q9UBN4 1-893 isoform Q9UBN4-2): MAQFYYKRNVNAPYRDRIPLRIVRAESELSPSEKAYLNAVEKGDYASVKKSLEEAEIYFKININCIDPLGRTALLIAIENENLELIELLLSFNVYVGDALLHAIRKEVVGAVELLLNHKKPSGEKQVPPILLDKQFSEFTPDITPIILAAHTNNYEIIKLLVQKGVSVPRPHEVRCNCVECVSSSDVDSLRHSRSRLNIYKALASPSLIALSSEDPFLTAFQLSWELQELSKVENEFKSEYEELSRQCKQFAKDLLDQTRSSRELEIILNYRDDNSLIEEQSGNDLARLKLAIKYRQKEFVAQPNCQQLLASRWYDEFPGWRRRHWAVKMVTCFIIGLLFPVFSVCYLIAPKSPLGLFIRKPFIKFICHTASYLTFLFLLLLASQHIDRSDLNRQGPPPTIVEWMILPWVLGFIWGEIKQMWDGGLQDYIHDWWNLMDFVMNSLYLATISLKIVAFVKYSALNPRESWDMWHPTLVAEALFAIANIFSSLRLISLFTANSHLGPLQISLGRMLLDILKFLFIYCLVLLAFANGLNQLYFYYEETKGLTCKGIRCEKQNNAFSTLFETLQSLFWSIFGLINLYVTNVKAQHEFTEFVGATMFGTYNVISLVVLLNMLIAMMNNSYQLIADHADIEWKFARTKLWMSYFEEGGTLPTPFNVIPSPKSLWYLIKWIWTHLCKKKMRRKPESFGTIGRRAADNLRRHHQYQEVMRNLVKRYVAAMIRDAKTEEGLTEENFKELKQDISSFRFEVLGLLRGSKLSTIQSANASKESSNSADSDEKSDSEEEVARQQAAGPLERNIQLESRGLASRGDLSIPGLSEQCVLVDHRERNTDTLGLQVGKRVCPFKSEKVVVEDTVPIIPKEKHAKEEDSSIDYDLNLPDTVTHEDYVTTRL
Assay: [Ca2+]i recordings (Fura-2), TRPC4:C4 in HEK T-REx cells
Assay type: cell-based
Settings: for IC50: HEK T-REx
Protocol: Based on the findings described above, we wondered whether AC1903—which is typically used as a TRPC5 inhibitor at concentrations of 30–100 μM in cellular assays ([29], [56])—might have limited selectivity for TRPC5 channels and whether its effect on intracellular G418 levels and PTC readthrough might be the consequence of inhibition of other or multiple targets. All well-characterized TRPC channel inhibitors reported to date modulate multiple TRP(C) channels ([34], [35], [36]). […] Because limited data for the selectivity of AC1903 are available in the public domain, we decided to profile AC1903 against a selection of calcium-permeable cation channels by intracellular calcium ([Ca^2+]i) recordings using well-characterized cell lines and TRP channel activators ([46], [57], [58]), and the Ca^2+ indicator Fura-2. In these assays, cells (HEK 293, HEK T-REx, or CHO) overexpressing the relevant ion channel protein and loaded with Fura-2 AM (a cell-permeable precursor of Fura-2) were preincubated with various concentrations of AC1903 or vehicle (DMSO) for 30 min. Then, changes in ratiometric fluorescence (from background) were recorded upon addition of the respective ion channel activator.
Figure 4 AC1903 inhibits multiple TRP channels.A and C, representative [Ca^2+]i measurements from a single 96-well plate (N = 6; mean ± SD over technical replicates) showing inhibition of EA-mediated [Ca^2+]i responses by 0.1 to 100 μM AC1903 in (Tet+) HEK T-REx cells expressing TRPC5 (A) or TRPC4 (C). B and D, concentration–response data for experiments in (A) and (C) (scatter plots showing normalized data for three independent experiments; n/N = 3/18). Responses were calculated at 250 to 295 s compared to [Ca^2+]i at baseline (0–55 s). E and G, representative [Ca^2+]i measurements from a single 96-well plate (N = 6; mean ± SD over technical replicates) showing inhibition of OAG-mediated [Ca^2+]i responses by 0.1 to 100 μM AC1903 in (Tet+) HEK T-REx cells expressing TRPC3 (E) and WT HEK 293 cells transiently expressing TRPC6 (G). F and H, concentration–response data for experiments in (E) and (G) (scatter plots showing normalized data for three independent experiments; n/N = 3/18). Responses were calculated at 90 to 110 s compared with [Ca^2+]i at baseline (0–55 s). I, representative [Ca^2+]i measurements from a single 96-well plate (N = 6; mean ± SD over technical replicates) showing inhibition of the 4α-PDD-mediated [Ca^2+]i response by 0.1 to 100 μM AC1903 in CHO cells stably expressing TRPV4. J, concentration–response data for experiments in (I) (scatter plot showing normalized data for three independent experiments; n/N = 3/18). Responses were calculated at 290 to 300 s compared with [Ca^2+]i baseline (0–55 s). EA, (-)-englerin A; TRPC, transient receptor potential canonical. […]

Work on `c1ccc(Cn2c(NCc3ccco3)nc3ccccc32)cc1` [AC1903] yielded an IC50 (activator EA (30 nM)) of 2100 nM, an IC50 (activator S1P (10 μM)) of 1800 nM and a Hill slope (activator EA (30 nM)) of -1.7. The Hill slope (activator S1P (10 μM)) was -1.9.
